Where a name gives a salt, the structure may show the parent alone.
Experiments:
[1] = biological target: binding of KRAS(G12C) to SOS1 (Homo sapiens (Human), UniProt Q07889); assay: KRAS(G12C) and SOS1 binding assay (HTRF); settings: 25° C., 60 minutes
Description: The small molecular compound binds to the catalytic site of SOS1, thus inhibiting the binding of SOS1 to KRAS (G12C). When the binding of fluorescently labeled SOS1 protein to fluorescently labeled KRAS (G12C) protein is inhibited, the emitted fluorescence changes. The ability of small molecules to prevent the binding of SOS1 to KRAS (G12C) can be tested by detecting changes in fluorescence. A homogeneous time-resolved fluorescence (HTRF) binding assay was used to detect the ability of the compounds of the present disclosure to inhibit the binding of SOS1 to KRAS (G12C).
KRAS (G12C) protein was expressed and purified by Wuhan AtaGenix Biotechnology Co., Ltd., SOS1 exchange domin (564-1049) protein (Human recombinant) was purchased from Cytoskeleton, Mab Anti 6HIS-XL665 and Mab Anti GST-Eu cryptate were purchased from Cisbio. Multimode microplate reader Nivo5 was purchased from PerkinElmer.
1× buffer preparation (ready-to-use): Hepes: 5 mM; NaCl: 150 mM; EDTA: 10 mM; Igepal: 0.0025%; KF: 100 mM; DTT: 1 mM; BSA: […];
The test compounds were 5-fold diluted with DMSO using a multi-channel pipette to the 8th concentration, i.e., diluted from 1 mM to 0.064 μM.
The test compound was diluted by gradient with 1× buffer to a working solution with 2% DMSO. 5 μL/well of the working solution was added to corresponding wells, and the corresponding concentration gradient was 20 μM to […]. Duplicate experiment was set. The working solution was centrifuged at 1000 rpm for 1 minute.
A mixed working solution of KRAS(G12C) (200 nM) and Mab Anti GST-Eu cryptate (1 ng/μL) was prepared with 1× buffer, and the mixed working solution was incubated at 25° C. for 5 minutes, and 2.5 μL/well of the mixed working solution was added to the corresponding wells.
A mixed working solution of SOS1 (80 nM) and Mab Anti 6HIS-XL665 ([…]) was prepared with 1× buffer, and 2.5 μL/well of the mixed working solution was added to the corresponding wells. 2.5 μL of Mab Anti 6HIS-XL665 ([…]) diluent was added to blank wells. At this time, the final concentration gradient of the compound was diluted from 10 μM to 0.64 nM, KRAS(G12C) ([…]), MAb Anti GST-Eu cryptate (0.25 ng/μL), SOS1 (20 nM), Mab Anti 6HIS-XL665 (2 g/μL), the reaction system was placed at 25° C. for 60 minutes. After the reaction was completed, the multimode microplate reader was used to read HTRF.
Using the equation (Sample−Min)/(Max−Min)×100% to convert the raw data into inhibition rate, the IC50 value might be obtained by curve fitting with four parameters (obtained by “log (inhibitor) vs. response—Variable slope” mode in GraphPad Prism).

p-ERK in DLD-1 cells = assay: p-ERK inhibitory activity test in DLD-1 cells (HTRF Phospho-ERK1/2 kit); assay type: cell-based; settings: Homo sapiens, 1 hour incubation
Protocol: DLD-1 cells were purchased from Nanjing Cobioer; 1640 medium was purchased from Biological Industries; fetal bovine serum was purchased from Biosera; Advanced Phospho-ERK1/2 (THR202/TYR204) KIT was purchased from Cisbio.
DLD-1 cells were seeded in a transparent 96-well cell culture plate, with 80 μL of cell suspension per well and 8000 DLD-1 cells per well. The cell plate was incubated in a carbon dioxide incubator at 37° C. overnight; • the test compound was diluted to 2 mM with 100% DMSO as the first concentration, and then 5-fold diluted to the 8th concentration with a pipette, that is, diluted from 2 mM to 0.026 μM. 2 μL of compound was added to 78 μL of cell starvation medium. After mixing well, 20 μL of compound solution was taken and added to the corresponding cell plate wells, and the cell plate was put back to the carbon dioxide incubator to continue to incubate for 1 hour; at this time, the concentration of the compound was from 10 μM to 0.128 nM, and the concentration of DMSO was 0.5%; • after the incubation was completed, the cell supernatant was discarded, and 50 μL of cell lysate was added to each well, and incubated at room temperature for 30 minutes with shaking; • Phospho-ERK1/2 Eu Cryptate antibody and Phospho-ERK1/2 d2 antibody were 20-fold diluted using Detection buffer; • 16 μL of cell lysate supernatant per well was put into a new 384 white microplate, then 2 μL of Phospho-ERK1/2 Eu Cryptate antibody diluent and 2 μL of Phospho-ERK1/2 d2 antibody diluent were added thereto and incubated at room temperature for 4 hours; • after the incubation was completed, a multimode microplate reader was used to read HTRF excitation: 320 nm, emission: 615 nm, 665 nm.
Using the equation (Sample−Min)/(Max−Min)*100% to convert the raw data into inhibition rate, the IC50 value might be obtained by curve fitting with four parameters (obtained by “log (inhibitor) vs. response—Variable slope” mode in GraphPad Prism). • Max well: Positive control well reading is 1× lysate • Min well: Negative control well reading is 0.5% DMSO cell well cell lysate

[2] = Pharmacokinetic evaluation in Balb/c mice (IV and oral); assay type: in vivo; settings: male, mouse, plasma; for Cmax: IV 10 mg/kg and oral 50 mg/kg study, read-out: Peak concentration Cmax; for bioavailability / clearance / half-life / Vd: IV 10 mg/kg; for bioavailability / AUC(0-t): PO 50 mg/kg; for bioavailability: read-out: Bioavailability F; for clearance: read-out: Clearance rate CL; for half-life: read-out: Half life T1/2 (IV) (converted); for Vd: read-out: Volume of distribution at steady state Vdss; for AUC(0-t): read-out: Area under drug-time curve AUC0-last PO
Protocol: Balb/c mice (male, Beijing Vital River Laboratory Animal Technology Co., Ltd.)
The pharmacokinetic characteristics of the compound in rodents after intravenous injection and oral administration were tested according to the standard protocol. In the experiment, the candidate compound was formulated into clear solutions, and a single intravenous injection and oral administration were given to mice. The vehicle for intravenous injection and oral administration was a mixed vehicle composed of 5% dimethyl sulfoxide, 5% solutol, and 90% water. In this project, four male Balb/c mice were used, and two mice were administered intravenously at a dose of 10 mg/kg. Plasma samples were collected at 0.083, 0.25, 0.5, 1, 2, 4, 8, and 24 hours after administration. The other two mice were administered orally by gavage at a dose of 50 mg/kg. Plasma samples were collected at 0.25, 0.5, 1, 2, 4, 6, 8, 12, and 24 hours after administration. Blood samples were placed on ice after collection and centrifuged to separate plasma within 1 hour (centrifugation conditions: 6000 g, 3 minutes, 2 to 8° C.). Plasma samples were stored in a −80° C. refrigerator before analysis. The plasma concentration was quantitatively analyzed by LC-MS/MS analysis method, and the pharmacokinetic parameters were calculated, such as peak concentration (Cmax), clearance rate (CL), half-life (T1/2), volume of distribution at steady state (Vdss), area under drug-time curve (AUC0-last), bioavailability (F).

binding of KRAS(G12C) to SOS1, sequence (Q07889 564-1049, stated change not applied): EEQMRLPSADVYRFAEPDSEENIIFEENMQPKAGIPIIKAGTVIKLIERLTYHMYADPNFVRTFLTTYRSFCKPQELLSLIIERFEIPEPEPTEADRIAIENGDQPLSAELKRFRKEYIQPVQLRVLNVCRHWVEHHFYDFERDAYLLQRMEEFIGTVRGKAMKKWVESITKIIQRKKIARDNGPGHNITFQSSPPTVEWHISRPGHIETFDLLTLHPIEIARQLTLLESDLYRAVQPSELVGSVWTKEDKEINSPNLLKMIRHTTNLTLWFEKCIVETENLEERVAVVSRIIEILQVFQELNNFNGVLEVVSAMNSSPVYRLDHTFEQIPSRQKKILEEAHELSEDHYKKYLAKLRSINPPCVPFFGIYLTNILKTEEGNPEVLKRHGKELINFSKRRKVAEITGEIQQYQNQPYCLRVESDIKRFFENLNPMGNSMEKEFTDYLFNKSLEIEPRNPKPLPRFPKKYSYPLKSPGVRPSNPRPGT

Row | Compound | IC50 [1] [nM] | IC50 (p-ERK in DLD-1 cells) [nM] | also measured
1 | COc1cc2nc(C)nc(N[C@H](C)c3cccc(C(F)(F)CO)c3F)c2cc1OC(=O)N1CCN(C)CC1C (stereo partly drawn) [Hydrochloride of compound 18] | 23.4 | 243 | –
2 | COc1cc2nc(C)nc(N[C@H](C)c3cccc(C(F)F)c3F)c2cc1OC(=O)N1CCNCC12CC2 [Compound 25] | 86.1 | – | –
3 | COc1cc2nc(C)nc(N[C@H](C)c3cccc(C(F)F)c3F)c2cc1OC(=O)N1CCN(C)CC1C (stereo partly drawn) [Hydrochloride of compound 19] | 105 | – | –
4 | COc1cc2nc(C)nc(N[C@H](C)c3cc(N)cc(C(F)(F)F)c3)c2cc1OC(=O)N1CCC2(CCOC2)CC1 [Compound 7] | 92.8 | – | –
5 | CCN1CCN(C(=O)Oc2cc3c(N[C@H](C)c4cc(N)cc(C(F)(F)F)c4)nc(C)nc3cc2OC)CC1 [Hydrochloride of compound 5] | 77.3 | 219 | –
6 | COc1cc2nc(C)nc(N[C@H](C)c3cc(N)cc(C(F)(F)F)c3F)c2cc1OC(=O)N1CCN(C)CC1C (stereo partly drawn) [Compound 27] | 40.6 | 112 | –
7 | COc1cc2nc(C)nc(N[C@H](C)c3cc(N)cc(C(F)(F)F)c3)c2cc1OC(=O)N1CCN(C)CC1 [Compound 2] | 110 | 122 | –
8 | COc1cc2nc(C)nc(N[C@H](C)c3cc(N)cc(C(F)(F)F)c3)c2cc1OC(=O)N1CCCN(C)CC1C (stereo partly drawn) [Compound 13] | 70.4 | 282 | –
9 | COc1cc2nc(C)nc(N[C@H](C)c3cccc(C(F)(F)C(C)(C)O)c3F)c2cc1OC(=O)N1CCN(C2COC2)CC12CC2 [Compound 24] | 47.9 | – | –
10 | COc1cc2nc(C)nc(N[C@H](C)c3cc(N)cc(C(F)(F)F)c3)c2cc1OC(=O)N1CCN2CCCC2C1 (stereo partly drawn) [Compound 10] | – | 86.2 | –
11 | COc1cc2nc(C)nc(N[C@H](C)c3cc(N)cc(C(F)(F)F)c3)c2cc1OC(=O)N1CCC2(CC1)CO[C@H](C)[C@@H]2N [Compound 11] | 78.6 | – | –
12 | COc1cc2nc(C)nc(N[C@H](C)c3cccc(C(F)(F)CO)c3)c2cc1OC(=O)N1CCN(C)CC1C (stereo partly drawn) [Hydrochloride of compound 16] | 59.6 | 222 | –
13 | COc1cc2nc(C)nc(N[C@H](C)c3cc(N)cc(C(F)(F)F)c3)c2cc1OC(=O)N1CCN(C2COC2)CC1 [Compound 9] | 83.6 | – | –
14 | COc1cc2nc(C)nc(N[C@H](C)c3cccc(C(F)(F)C(C)(C)O)c3F)c2cc1OC(=O)N1CCN(C)C[C@H]1C [Hydrochloride of compound 29] | 14.7 | 135 | Cmax [2]: 10.9 µM; bioavailability [2]: 91.2%; clearance [2]: 18.7 mL/min/kg; half-life [2]: 3.46 h; Vd [2]: 4.15 L/kg; AUC(0-t) [2]: 74.6 µM·h
15 | COc1cc2nc(C)nc(N[C@H](C)c3cc(N)cc(C(F)(F)F)c3)c2cc1OC(=O)N1CCN(C)CC1C (stereo partly drawn) [Hydrochloride of compound 4] | 71.1 | 113 | –
16 | COc1cc2nc(C)nc(N[C@H](C)c3cccc(C(F)(F)C4CCCO4)c3F)c2cc1OC(=O)N1CCN(C)CC1C (stereo partly drawn) [Hydrochloride of compound 15] | 149 | – | –
17 | COc1cc2nc(C)nc(N[C@H](C)c3cc(N)cc(C(F)(F)F)c3)c2cc1OC(=O)N1CCNCC1 [Hydrochloride of compound 6] | 87.6 | – | –
18 | COc1cc2nc(C)nc(N[C@H](C)c3cccc(C(F)F)c3F)c2cc1OC(=O)N1CCN(C2COC2)CC12CC2 [Compound 26] | 65.9 | 283 | –
19 | COc1cc2nc(C)nc(N[C@H](C)c3cc(N)cc(C(F)(F)F)c3)c2cc1OC(=O)N1CCC(N(C)C)CC1 [Hydrochloride of compound 8] | 73.7 | – | –
20 | COc1cc2nc(C)nc(N[C@H](C)c3cccc(C(F)(F)C(C)(C)O)c3F)c2cc1OC(=O)N1CCN(C)C[C@@H]1C [Hydrochloride of compound 28] | 14.5 | 91.5 | Cmax [2]: 4.59 µM; bioavailability [2]: 98.8%; clearance [2]: 36.7 mL/min/kg; half-life [2]: 6.01 h; Vd [2]: 11.5 L/kg; AUC(0-t) [2]: 37.5 µM·h
